Data: patent US9598399B2, “Compound suitable for detection of mitochondrial complex-1” (HAMAMATSU PHOTONICS K.K., priority 2012, dated 2017)

Assays:
mitochondrial Complex-1 [1] = experiment: Autoradiography using living rat brain slices, inhibition of probe binding by rotenone; conditions: for binding inhibitory effect by rotenone on probe binding: rotenone 2-20000 nM, probe 1 MBq/ml, FIGS. 3 and 4
Description: A rat was anesthetized with chloral hydrate (400 mg/kg; I.P.) and decapitated. Thereafter, the brain was immediately sampled and cooled sufficiently, and the cooled brain was immersed in ACSF (artificial cerebrospinal fluid) in a sherbet state. A necessary block of the obtained brain was cut and adhered to a fixing platform of a vibration microtome HM650V (Thermo Fisher Scientific, Inc., Waltham, USA). Thereafter, brain slices having a thickness of 300 μm were produced. The cut brain slices were immersed in 24 ml of ACSF for 30 minutes under bubbling with O2, and thus the activities of cells were calmed. Thereafter, 20 μL of Vehicle or Rotenone (adjusted to concentrations of 2 nM, 20 nM, 200 nM, and 20000 nM in respective beakers) was added to ACSF, and the mixture was bubbled for 30 minutes. Furthermore, 1 MBq/ml of [^18F]BMS or [^18F]BCPP-EF was added to the ACSF, and bubbling was continued for 30 minutes. After completion of the bubbling, the brain slices were taken out and transferred to 100 ml of fresh ACSF. Subsequently, excess RI was washed away by bubbling the ACSF for another 30 minutes. Thereafter, the brain slices were arranged in a row on an OHP sheet, and an image thereof was captured with a scanner (Epson: GT-600). Subsequently, the OHP sheet having the brain slices arranged in a row thereon was placed on an imaging plate (ST-VI, Fujifilm Corp., Tokyo) having sensitivity to radiation, and the OHP sheet was left to stand for about one hour in the dark (contact). The imaging plate was subjected to detection with a Fluoro Image Analyzer, FLA-7000 (Fujifilm Corp., Tokyo).

mitochondrial Complex-1 [2] = experiment: PET analysis of rotenone-administered rat (brain and heart); type: in vivo; conditions: rat cerebellum, cerebral cortex, corpus striatum and heart; rotenone 0.1 mg/kg/h i.v.; FIGS. 5 and 6
Description: A rat was anesthetized with chloral hydrate (400 mg/kg; I.P.) and was immobilized on a bed for measurement. Immediately thereafter, rotenone (0.1 mg/kg/h) or a vehicle was administered through the tail vein of the rat. In order to identify the position of the brain during the administration, an analysis was carried out using Clairvivo-CT (Shimadzu Corp.). Thereafter, the bed for measurement was moved to Clairvivo PET. After the administration of rotenone (0.1 mg/kg/h) or the vehicle was completed, [^18F]BMS or [^18F]BCPP-EF was immediately bolus administered in an amount of about 8 MBq/animal through the tail vein of the rat, and the measurement was carried out for 60 minutes. During the measurement, chloral hydrate (100 mg/kg/hr) was continuously administered through the tail vein of the rat, and thereby the rat was inactivated.

[3] = system: site of ischemic disorder in the brain; experiment: PET analysis of rat cerebral infarction (PIT) model with blocked middle cerebral artery; type: in vivo; conditions: for accumulation of probe in site of ischemic disorder: Normal, Day-1, Day-7, PET 60 minutes
Description: The rat was subjected to anesthesia induction using 4% halothane (30% O2, 70% room air), and during the surgery, the halothane concentration was maintained at 1.5% to 2%. The skin was incised along the left eye cavity margin under a surgical microscope, and an elliptical window (hole) having a size of about 3 mm was cut open in the lower cranium using a dental drill so that the left middle cerebral artery could be seen under the dura mater. Photosensitizer Rose Bengal (20 mg/kg) was administered through the tail vein of the rat, the middle cerebral artery was irradiated with green light having a wavelength of 540 nm for 10 minutes, and thus cerebral infarction was developed in the rat.
In the respective rats before the onset of cerebral infarction (Normal), 1 day after the onset of cerebral infarction (Day-1), and 7 days after the onset of cerebral infarction (Day-7), glucose metabolism (using [^18F]FDG as a probe) and the activity of mitochondrial Complex-1 (using [^18F]BMS or [^18F]BCPP-EF as a probe) in the sites of ischemic disorder in the brain were monitored by the PET method. Specifically, each of the probes was bolus administered in an amount of 6 to 8 MBq/animal through the tail vein of the rat, and the analysis was carried out for 60 minutes. During the analysis, the rat was inactivated by continuously administering chloral hydrate (100 mg/kg/hr) through the tail vein of the rat.

mitochondrial Complex-1 [4] = experiment: PET experiment on inhibition of binding to mitochondrial Complex-1 by rotenone administration in monkey brain; type: in vivo; conditions: compared with [18F]BMS
Description: (§1) Cephalic vein or saphenous vein was secured as the route of intravenous administration to the test animal, and femoral artery or posterior tibial artery was secured as the route for collecting arterial blood. First, the amount of radioactivity of [^18F]BMS, [^18F]BCPP-EF or [^11C]BCPP-EM was measured. As radioactive agents, [^18F]BMS and [^18F]BCPP-EF were administered through an indwelling needle indwelled in a test animal in an amount of administration of 300 to 500 MBq, and [^11C]BCPP-EM was administered in an amount of administration of 800 to 1200 MBq, such that the entire amount of the radioactive agent was intravenously administered over about 30 seconds. Simultaneously with the initiation of administration of the radioactive agent, measurement of emission (6 frames of 10 seconds, 6 frames of 30 seconds, 12 frames of 1 minute, 25 frames of 3 minutes, and 6 frames of 5 minutes; 55 frames for 121 minutes in total) was initiated.
In the experiment on the inhibition of PET probe binding by rotenone administration in the brain of a monkey, rotenone was administered to the test animal by intravenous injection in an amount of 0.1 mg/kg/hr. Subsequently, [^18F]BMS, [^18F]BCPP-EF or [^11C]BCPP-EM was administered as a probe, and a PET analysis was carried out.

mitochondrial Complex-1 [5] = experiment: PET analysis of intracerebral activity of mitochondrial Complex-1 in young and aged monkey; type: in vivo; conditions: young monkey (5 years old) versus aged monkey (22 years old), FIG. 10
Description: as §1
The results of a PET analysis obtained from a young monkey (5 years old) and an aged monkey (22 years old) are presented in FIG. 10. [^18F]BCPP-EF was used as the PET probe.

mitochondrial Complex-1 [6] = experiment: PET analysis of intracerebral activity of mitochondrial Complex-1 in Parkinson's disease model monkey; type: in vivo, Macaca fascicularis; conditions: Parkinson's disease (MPTP) model monkey versus normal monkey, FIG. 11
Description: as §1, with “Simultaneously with the initiation of administration of the radioactive agent, measurement of emission (6 frames of 10 seconds, 6 frames of 30 seconds, 12 frames of 1 minute, 25 frames of 3 minutes, and 6 frames of 5 minutes; 55 frames for 121 minutes in total) was initiated.” left out
A comparison of the intracerebral activity of mitochondrial Complex-1 was made between a normal monkey and a Parkinson's disease model monkey by a PET analysis. […] The degree of motility disturbance in the limbs was evaluated by observing the way that the Macaca fascicularis monkey picked up the feed, and also, by measuring the decrease in the sites of dopamine reabsorption using a PET analysis, it was finally confirmed that the Macaca fascicularis monkey had the condition of Parkinson's disease.

Oil-solubility (log P) = type: physicochemical
mitochondrial Complex-1 [7] = experiment: In vitro autoradiography of rat brain slices and in vivo PET of living rat brain (background evaluation of [18F]BMS)
Description: On the other hand, it has been reported that [^18F]BMS-747158-02 (2-tert-butyl-4-chloro-5-[4-(2-fluoroethoxymethyl)-benzyloxy]-2H-pyridazin-3-one, [^18F]BMS) serves as a PET probe that recognizes mitochondrial Complex-1 (hereinafter, may be referred to as “MC-1”), and this compound is used in a functional evaluation of the brain or the heart (Patent Literature 1 and Non-Patent Literature 1).

CC(C)(C)n1ncc(OCc2ccc(OCCCC[18F])nc2)c(Cl)c1=O [[^18F]BCPP-BF]
binding inhibitory effect by rotenone on probe binding (mitochondrial Complex-1 [1]): affected by the binding inhibitory effect of rotenone

CC(C)(C)n1ncc(OCc2ccc(OCCOCC[18F])nc2)c(Cl)c1=O [[^18F]BCPP-EF]
specificity to mitochondrial Complex-1 (mitochondrial Complex-1 [1]; compared with [18F]BMS): higher specificity to mitochondrial Complex-1 than [^18F]BMS
binding inhibitory effect by rotenone on probe binding (mitochondrial Complex-1 [1]): more likely to be affected by the binding inhibitory effect by rotenone than [^18F]BMS
uptake quantity of probe after administration of rotenone (mitochondrial Complex-1 [2]): further reduced by the administration of rotenone than that of [^18F]BMS
accumulation of probe in site of ischemic disorder ([3]; rat PIT model, FIG. 7): no accumulation of the probe was observed in the site of ischemic disorder
degree of accumulation of probe, site of ischemic disorder versus normal site ([3]; rat PIT model, compared with [18F]BMS, FIG. 7): clearly different between a site of ischemic disorder and a normal site
specificity to mitochondrial Complex-1 (mitochondrial Complex-1 [4]): higher specificity to mitochondrial Complex-1 than [^18F]BMS
binding inhibitory effect of rotenone on probe binding (mitochondrial Complex-1 [4]; rotenone 0.1 mg/kg/hr i.v., FIGS. 8 and 9): more likely to be affected by the binding inhibitory effect of rotenone
amount of PET probe accumulated in the brain (mitochondrial Complex-1 [5]): a larger amount of the PET probe was accumulated in the brain in the young monkey than in the aged monkey
amount of PET probe accumulating in the brain (mitochondrial Complex-1 [6]): smaller in the Parkinson's disease model monkey, compared with the normal monkey

CC(C)(C)n1ncc(OCc2ccc(COCCF)cc2)c(Cl)c1=O [[^18F]BMS, 2-tert-butyl-4-chloro-5-[4-(2-fluoroethoxymethyl)-benzyloxy]-2H-pyridazin-3-one]
accumulation of probe in site of ischemic disorder ([3]; rat PIT model, FIG. 7): no accumulation of the probe was observed in the site of ischemic disorder
logP (Oil-solubility (log P)): 1.42
non-specific binding capacity (mitochondrial Complex-1 [7]; rat brain): high non-specific binding capacity
inhibitory effect in inhibition experiment using rotenone (mitochondrial Complex-1 [7]; rotenone, inhibitory drug specific to Complex-1): an inhibitory effect cannot be sufficiently checked

OC[C@H]1OC(O)[C@H]([18F])[C@@H](O)[C@@H]1O (stereo partly shown) [[^18F]FDG, ^18F-fluorodeoxyglucose]
accumulation of probe in site of ischemic injury of the brain ([3]; cerebral infarction model rat, PET, background statement): accumulation of [^18F]FDG is increased
accumulation of probe in site of ischemic disorder ([3]; rat PIT model, FIG. 7): accumulation of [^18F]FDG increased in the site of ischemic disorder
